# Experimental data taken from article PMC11714206, “Massively Parallel Screening of Toll/Interleukin‐1 Receptor (TIR)‐Derived Peptides Reveals Multiple Toll‐Like Receptors (TLRs)‐Targeting Immunomodulatory Peptides” (Advanced Science, 2024).
# Target: T1, MyD88^TIR (Homo sapiens, UniProt Q99836)
# T1 construct: MyD88 (residues 148–296); 6xHis; made in house; host or cells: E. coli BL21 (DE3)
# Assay: T‐Surf phage library (P8 and P3) selection against MyD88^TIR, four rounds, NGS read counts
# Format: binding
# Settings: for P8_MyD88 Rank (after) / P8_MyD88 Rank (before): P8 library; for Population: P8_MyD88 pool: P8 T-Surf phage library, 4th round of selection against MyD88 TIR, share of NGS reads; for P3_MyD88 Rank (after) / P3_MyD88 Rank (before): P3 library
# Outline: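 Four panning rounds on TIR domain adsorbed at 5 µg mL^−1; binding 1 h at 20–22 °C, elution with 100 mM HCl. Output: NGS read counts of round‐4 pools versus naïve library.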
# [1] = P8_MyD88: rank by NGS read count after grouping
# [2] = P8_MyD88: rank by NGS read count before grouping
# [3] = selection against MyD88 TIR, rank by count after grouping
# [4] = selection against MyD88 TIR, rank by count before grouping
# [5] = selection against MyD88, rank by count after grouping
# [6] = selection against MyD88, rank by count before grouping
# [7] = selection against MyD88, rank after grouping
# [8] = selection against MyD88, rank before grouping
# [9] = 4R selection against MyD88, rank after grouping
# [10] = 4R selection against MyD88, rank before grouping
# [11] = P8_MyD88: rank by count after grouping
# [12] = P8_MyD88: rank by count before grouping
# [13] = P3_MyD88: rank by count after grouping
# [14] = P3_MyD88: rank by count before grouping
# T1 sequence (Q99836 148-296): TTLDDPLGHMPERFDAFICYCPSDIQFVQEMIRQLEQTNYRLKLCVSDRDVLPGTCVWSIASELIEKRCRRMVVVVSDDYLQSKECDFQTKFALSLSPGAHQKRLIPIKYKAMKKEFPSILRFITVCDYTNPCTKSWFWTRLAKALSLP
sequence,measurement,setting,value
DWVWDYLLPNLEGHAT,Rank (after),[1],904
same,Rank (before),[2],2439
DWVWDYLLPNLEGPG,P8_MyD88 Rank (after),[3],260
same,P8_MyD88 Rank (before),[4],1038
DWVWDYLLPNLEGQR,P8_MyD88 Rank (after),[3],264
same,P8_MyD88 Rank (before),[4],550
DWVWDYLLQILHARELF,Rank (after),[1],995
same,Rank (before),[2],2450
DWVWDYLLQSGRPSG,Rank (after),[1],932
same,Rank (before),[2],2451
DWVWDYMLTNLEGPAG,P8_MyD88 Rank (after),[5],708
same,P8_MyD88 Rank (before),[6],2455
DWVWEHFVGIEDHIK,P8_MyD88 Rank (after),[7],513
same,P8_MyD88 Rank (before),[8],2472
DWVWEYLLPNVERPEG,Rank (after),[1],880
same,Rank (before),[2],2458
DWVWVYLLPNLEGPEG,P8_MyD88 Rank (after),[9],641
same,P8_MyD88 Rank (before),[10],2402
DWVWVYRLPNLEGPAG,Rank (after),[1],979
same,Rank (before),[2],2403
DWVYNELIAHLENTEH,P8_MyD88 Rank (after),[3],204
same,P8_MyD88 Rank (before),[4],306
DYANSSWALDELWLIL,P8_MyD88 Rank (after),[7],510
same,P8_MyD88 Rank (before),[8],2544
DYASNTFLLRELLQIA,P8_MyD88 Rank (after),[5],746
same,P8_MyD88 Rank (before),[6],2543
DYASSSWALDVLWNIF,Rank (after),[1],950
same,Rank (before),[2],2507
DYASSSWYLDELVHILW,P8_MyD88 Rank (after),[3],262
same,P8_MyD88 Rank (before),[4],693
DYASSTWWLRELLYA,Rank (after),[11],434
same,Rank (before),[12],1060
DYASSWWALDELLRILY,P8_MyD88 Rank (after),[9],650
same,P8_MyD88 Rank (before),[10],2504
DYASSWWALEEMAKIM,Rank (after),[11],177
same,Rank (before),[12],202
DYASYDDNDYYWVTHVLLRHL,Rank (after),[11],439
same,Rank (before),[12],1058
DYTSSPWALEELLKIM,Rank (after),[11],159
same,Rank (before),[12],171
same,Population,,0.00809%
EAFAVHENISKKTLK,P3_MyD88 Rank (after),[9],611
same,P3_MyD88 Rank (before),[10],2194
EAFAVHVWSSKANSLVG,P3_MyD88 Rank (after),[5],727
same,P3_MyD88 Rank (before),[6],2193
EDSIFYAVSSGALDEP,P8_MyD88 Rank (after),[5],697
same,P8_MyD88 Rank (before),[6],3174
EDTLIRLLVQRIMKEL,Rank (after),[11],173
same,Rank (before),[12],198
EGFTGFLYEALTRYGI,Rank (after),[11],174
same,Rank (before),[12],197
EHHLDLPRGKAIKPAILG,Rank (after),[13],152
same,Rank (before),[14],2117
EIARQLLSEYLNIAVY,Rank (after),[11],131
same,Rank (before),[12],142
same,Population,,0.0116%
EIVKFVLAKLVHLEHP,Rank (after),[13],409
same,Rank (before),[14],2224
ELDFASNMEQFWDRLYY,Rank (after),[1],935
same,Rank (before),[2],3177
ELDFSHFWLFDAGGDAAI,Rank (after),[1],956
same,Rank (before),[2],3183
ELDFSHFWLFDAGGEA,Population,,0.0154%
ELDFSHFWLFDGDAGEEP,P8_MyD88 Rank (after),[3],229
same,P8_MyD88 Rank (before),[4],476
ELDFSHFWLFDGHAGGEA,Population,,0.02%
ELDFSHFWLFDGHATGAA,Rank (after),[1],1003
same,Rank (before),[2],3187
ELDFSHFWLFDGHATGEA,Population,,0.0177%
ELDFSHFWLFDGQAGGAA,Rank (after),[1],917
same,Rank (before),[2],3182
ELDFSHFWLFDGQAT,P8_MyD88 Rank (after),[3],218
same,P8_MyD88 Rank (before),[4],358
ELDFSHFWLFDGQATGEA,Rank (after),[11],120
same,Rank (before),[12],174
same,Population,,0.00809%
ELDFSHFWLFDGQSGKDA,P8_MyD88 Rank (after),[3],216
same,P8_MyD88 Rank (before),[4],359
ELDFSHFWLFEAGGDA,Population,,0.02%
ELDFSHFWLFEARGDA,Population,,0.0224%
ELDFSHFWLFEGHATGEA,Rank (after),[11],127
same,Rank (before),[12],141
same,Population,,0.0116%
ELDGDFGRNLWDLWRL,P8_MyD88 Rank (after),[3],249
same,P8_MyD88 Rank (before),[4],477
ELWVLRYLLPTLEEQQ,Rank (after),[11],157
same,Rank (before),[12],173
same,Population,,0.00809%
ENYAFSSWALGELLHI,P8_MyD88 Rank (after),[3],192
same,P8_MyD88 Rank (before),[4],247
EPPGLDWVYERLVVLF,Rank (after),[1],927
same,Rank (before),[2],3199
EPQDLDWFYERLVSLL,Rank (after),[11],94
same,Rank (before),[12],478
EPQDLDWLYERLVSLF,Rank (after),[1],1009
same,Rank (before),[2],3148
ERLFIETQNVNKDLIG,P3_MyD88 Rank (after),[3],264
same,P3_MyD88 Rank (before),[4],2209
